Source: PubChem BioAssay (NCI)
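Where inhibition never reached the appropriate level, the endpoint shown equals the highest concentration tested. Otherwise, values were interpolated linearly from a five-concentration, 48-hour dose response in 96-well plates. At the TGI there is no net growth.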

Tests used:
Assay in all cases: NCI tumour cell line growth inhibition, 48 h
NCI-H522 lung = tested on: NCI-H522 lung
A498 renal = tested on: A498 renal
KM12 colon = tested on: KM12 colon
IGROV1 ovarian = tested on: IGROV1 ovarian
RPMI-8226 leukemia = tested on: RPMI-8226 leukemia
SF-539 CNS = tested on: SF-539 CNS
SF-268 CNS = tested on: SF-268 CNS
HL-60(TB) leukemia = tested on: HL-60(TB) leukemia
MOLT-4 leukemia = tested on: MOLT-4 leukemia
UACC-257 melanoma = tested on: UACC-257 melanoma
M14 melanoma = tested on: M14 melanoma
RXF 393 renal = tested on: RXF 393 renal
PC-3 prostate = tested on: PC-3 prostate
HT29 colon = tested on: HT29 colon
HS 578T breast = tested on: HS 578T breast
MDA-MB-231 breast = tested on: MDA-MB-231 breast
NCI/ADR-RES ovarian = tested on: NCI/ADR-RES ovarian
SR leukemia = tested on: SR leukemia
OVCAR-8 ovarian = tested on: OVCAR-8 ovarian
SNB-19 CNS = tested on: SNB-19 CNS
MALME-3M melanoma = tested on: MALME-3M melanoma
SK-MEL-5 melanoma = tested on: SK-MEL-5 melanoma
BT-549 breast = tested on: BT-549 breast
NCI-H23 lung = tested on: NCI-H23 lung
A549 NSCLC = tested on: A549 NSCLC
HOP-92 NSCLC = tested on: HOP-92 NSCLC
NCI-H460 lung = tested on: NCI-H460 lung
SK-MEL-2 melanoma = tested on: SK-MEL-2 melanoma
MCF7 breast = tested on: MCF7 breast
LOX IMVI melanoma = tested on: LOX IMVI melanoma
HOP-62 NSCLC = tested on: HOP-62 NSCLC
OVCAR-4 ovarian = tested on: OVCAR-4 ovarian
OVCAR-3 ovarian = tested on: OVCAR-3 ovarian
CAKI-1 renal = tested on: CAKI-1 renal
UO-31 renal = tested on: UO-31 renal
ACHN renal = tested on: ACHN renal
EKVX NSCLC = tested on: EKVX NSCLC
NCI-H226 lung = tested on: NCI-H226 lung
SK-OV-3 ovarian = tested on: SK-OV-3 ovarian
UACC-62 melanoma = tested on: UACC-62 melanoma
CCRF-CEM leukemia = tested on: CCRF-CEM leukemia
U251 CNS = tested on: U251 CNS
MDA-N = tested on: MDA-N
TK-10 renal = tested on: TK-10 renal
K-562 leukemia = tested on: K-562 leukemia
HCT-15 colon = tested on: HCT-15 colon
HCT-116 colon = tested on: HCT-116 colon
OVCAR-5 ovarian = tested on: OVCAR-5 ovarian
SF-295 CNS = tested on: SF-295 CNS
SN12C renal = tested on: SN12C renal
786-0 renal = tested on: 786-0 renal
SNB-75 CNS = tested on: SNB-75 CNS
SK-MEL-28 melanoma = tested on: SK-MEL-28 melanoma
T-47D breast = tested on: T-47D breast
DU-145 prostate = tested on: DU-145 prostate
SW-620 colon = tested on: SW-620 colon
MDA-MB-435 = tested on: MDA-MB-435
COLO 205 colon = tested on: COLO 205 colon
HCC-2998 colon = tested on: HCC-2998 colon

COc1ccc(-c2c(C#N)c(=O)nc(SC)n2C2OCC(OC(C)=O)C(OC(C)=O)C2OC(C)=O)cc1 (centres undefined)
TGI (NCI-H522 lung): > 100 µM | TGI (A498 renal): > 100 µM | TGI (KM12 colon): > 100 µM | TGI (IGROV1 ovarian): > 100 µM | TGI (RPMI-8226 leukemia): > 100 µM | TGI (SF-539 CNS): > 100 µM | TGI (SF-268 CNS): > 100 µM | TGI (HL-60(TB) leukemia): > 100 µM | TGI (MOLT-4 leukemia): > 100 µM | TGI (UACC-257 melanoma): > 100 µM | TGI (M14 melanoma): > 100 µM | TGI (RXF 393 renal): > 100 µM | TGI (PC-3 prostate): > 100 µM | TGI (HT29 colon): > 100 µM | TGI (HS 578T breast): > 100 µM | TGI (MDA-MB-231 breast): > 100 µM | TGI (NCI/ADR-RES ovarian): > 100 µM | TGI (SR leukemia): 53.3 µM | TGI (OVCAR-8 ovarian): > 100 µM | TGI (SNB-19 CNS): > 100 µM | TGI (MALME-3M melanoma): > 100 µM | TGI (SK-MEL-5 melanoma): > 100 µM | TGI (BT-549 breast): > 100 µM | TGI (NCI-H23 lung): > 100 µM | TGI (A549 NSCLC): > 100 µM | TGI (HOP-92 NSCLC): > 100 µM | TGI (NCI-H460 lung): > 100 µM | TGI (SK-MEL-2 melanoma): > 100 µM | TGI (MCF7 breast): > 100 µM | TGI (LOX IMVI melanoma): > 100 µM | TGI (HOP-62 NSCLC): > 100 µM | TGI (OVCAR-4 ovarian): > 100 µM | TGI (OVCAR-3 ovarian): > 100 µM | TGI (CAKI-1 renal): > 100 µM | TGI (UO-31 renal): > 100 µM | TGI (ACHN renal): > 100 µM | TGI (EKVX NSCLC): > 100 µM | TGI (NCI-H226 lung): > 100 µM | TGI (SK-OV-3 ovarian): > 100 µM | TGI (UACC-62 melanoma): > 100 µM | TGI (CCRF-CEM leukemia): > 100 µM | TGI (U251 CNS): > 100 µM | TGI (MDA-N): > 100 µM | TGI (TK-10 renal): > 100 µM | TGI (K-562 leukemia): > 100 µM | TGI (HCT-15 colon): > 100 µM | TGI (HCT-116 colon): > 100 µM | TGI (OVCAR-5 ovarian): > 100 µM | TGI (SF-295 CNS): > 100 µM | TGI (SN12C renal): > 100 µM | TGI (786-0 renal): > 100 µM | TGI (SNB-75 CNS): > 100 µM | TGI (SK-MEL-28 melanoma): > 100 µM | TGI (T-47D breast): > 100 µM | TGI (DU-145 prostate): > 100 µM | TGI (SW-620 colon): > 100 µM | TGI (MDA-MB-435): > 100 µM | TGI (COLO 205 colon): > 100 µM | TGI (HCC-2998 colon): > 100 µM
